Experimental data: patent publication US4812583A, “Substituted acyloxyalkylphenylethylene inhibitors of 3-hydroxy-3-methylglutaryl-coa reductase” (American Home Products Corporation, priority 1987, dated 1989)
Like-named read-outs stand apart in the source and are kept apart here.

How the values were obtained:
HMG-CoA Reductase = biological target: T1, HMG-CoA Reductase (Rattus norvegicus, UniProt P51639); test: Inhibition of HMG-CoA reductase (rat liver microsomal fraction, [14C] HMG-CoA); assay type: biochemical; conditions: rat liver microsomal enzyme, pH 7.5, 37° C., 20 min
T1 construct: the microsomal fraction is isolated by differential ultra centrifugation to obtain the HMG-CoA reductase enzyme; from tissue; host or cells: rat liver, microsomal fraction (cholestyramine-fed rats)
T1 sequence (P51639 1-887): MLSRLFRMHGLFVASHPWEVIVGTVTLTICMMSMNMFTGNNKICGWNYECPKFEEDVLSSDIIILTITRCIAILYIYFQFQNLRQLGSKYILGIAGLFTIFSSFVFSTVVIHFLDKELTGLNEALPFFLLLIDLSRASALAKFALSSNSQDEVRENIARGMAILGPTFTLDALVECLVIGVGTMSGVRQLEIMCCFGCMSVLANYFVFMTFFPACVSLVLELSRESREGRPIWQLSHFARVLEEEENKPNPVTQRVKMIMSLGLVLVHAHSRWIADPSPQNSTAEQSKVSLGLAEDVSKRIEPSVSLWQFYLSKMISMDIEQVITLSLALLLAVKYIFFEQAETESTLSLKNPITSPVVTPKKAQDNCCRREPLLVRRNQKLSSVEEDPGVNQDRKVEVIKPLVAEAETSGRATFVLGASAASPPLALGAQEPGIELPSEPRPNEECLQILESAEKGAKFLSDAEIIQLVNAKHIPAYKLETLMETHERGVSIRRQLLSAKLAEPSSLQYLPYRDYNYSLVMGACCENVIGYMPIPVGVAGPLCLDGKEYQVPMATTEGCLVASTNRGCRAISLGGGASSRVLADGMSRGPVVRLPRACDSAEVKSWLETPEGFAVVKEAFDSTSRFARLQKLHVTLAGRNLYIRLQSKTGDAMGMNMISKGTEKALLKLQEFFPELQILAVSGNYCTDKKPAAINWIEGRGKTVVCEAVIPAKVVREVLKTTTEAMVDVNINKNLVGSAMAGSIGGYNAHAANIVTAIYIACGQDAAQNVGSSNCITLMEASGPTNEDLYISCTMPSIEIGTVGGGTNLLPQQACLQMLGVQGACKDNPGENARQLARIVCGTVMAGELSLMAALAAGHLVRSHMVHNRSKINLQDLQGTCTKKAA
Description: The HMG-CoA reductase inhibitory properties of representative compounds of this invention were established by subjecting the compounds to the following standard experimental test procedure adapted from Rodwell et al., Adv. Lipid Res. 14 1, 1976; Endo et al., FEBS Letters 72 323, 1976; and Tanzawa et al., Biochemia et Biophysica Acta 488 97, 1977.
Rat livers obtained from rats fed on a diet containing 3% cholestyramine and maintained on a reverse lighting regimen for three weeks are homogenized and the microsomal fraction is isolated by differential ultra centrifugation to obtain the HMG-CoA reductase enzyme. To a preincubated (five minutes at 37° C.) solution of the compound being tested (as either the lactone and/or dihydroxy sodium carboxylate in amounts from 10^-3 to 10^-6 M) in TEDKS100 pH (Tris® 40 mM; EDTA 1 mM; dithiothreitol 5 mM; KCl 70 mM; sucrose 100 mM) 7.5 buffer or DMSO dissolved in an assay medium containing 20 μl of 2.5M KCl; 20 μl NADPH (reduced nicotinamide adenine dinucleotide phosphate) (7.5 mM); and 40 μl of labeled (RS) HMG-CoA (3-^14 C; […]; 200 μM) is added 10 μl of preincubated (five minutes at 37° C.) microsomal fraction (produced above) to obtain a total volume of 125 μl. After a twenty minute incubation period at 37° C., reaction of the enzyme is terminated by addition of 10 μl of 70% of HClO4. The assay tubes are then centrifuged for two minutes in a Beckman microfuge II.
To 100 μl of the supernatant liquid is added 10 μl of non-radioactivemevalonic acid lactone (0.25M in 8 mM H2 SO4). An aliquot of the sample is eluted with 8 mM H2 SO4 through Bio Rad Aminex HPX-87H (HPLC; Hewlett-Packard Model 1084B) at a flow rate of 1 mL/minute. The effluent is fractionated, Hydrofluor® is added and radioactivity of the [^14 C] mevalonolactone produced by reduction of [^14 C] HMG-CoA determined with a scintillation counter.
The percent inhibition of HMG-CoA reductase activity is obtained by comparison with a control assay devoid of the test compound. The inhibitory concentration (IC50) is calculated for the various test compounds.

[1] = test system: biosynthesis of cholesterol; conditions: background; cited from earlier work
[2] = Dihydroxycarboxylate form (dihydroxy sodium carboxylate), read-out: Inhibition of HMG-CoA Reductase (IC50, M), Dihydroxycarboxylate
[3] = Lactone form, read-out: Inhibition of HMG-CoA Reductase (IC50, M), Lactone

Row | IC50 (HMG-CoA Reductase; [2]) [M] | IC50 (HMG-CoA Reductase; [3]) [M] | SMILES | inhibition of cholesterol biosynthesis, in words [1]
1 | > 0.0001 | > 0.001 | CCCCCCCCCC(OC(=O)C(C)(C)CC)c1cc(C)cc(C)c1/C=C/[C@@H]1C[C@@H](O)CC(=O)O1 (relative stereo) [Example 2, 2,2-Dimethylbutanoic acid[4α,6β(E)]-1-[2-[2-(tetrahydro-4-hydroxy-6-oxo-2H-pyran-2-yl)ethenyl]-3,5-dimethylphenyl]decyl ester] | –
2 | 6.2e-06 | 0.0017 | CCC(C)(C)C(=O)OC(c1ccccc1)c1cc(C)cc(C)c1/C=C/[C@@H]1C[C@@H](O)CC(=O)O1 (relative stereo) [Example 3, 2,2-Dimethylbutanoic acid[4α,6β,(E)]-[[3,5-dimethyl-[2-[2-tetrahydro-4-hydroxy-6-oxo-2H-pyran-2-yl]ethenyl]phenyl]phenylmethyl]ester] | –
3 | – | – | CC[C@H](C)C(=O)O[C@H]1CCC=C2C=C[C@H](C)[C@H](CC[C@@H]3C[C@@H](O)CC(=O)O3)[C@H]21 [compactin] | could be inhibited
4 | 1.7e-06 | 2.7e-06 | CCCC(OC(=O)C(C)(C)CC)c1cc(C)cc(C)c1/C=C/[C@@H]1C[C@@H](O)CC(=O)O1 (relative stereo) [Example 1] | –
5 | 4e-05 | 5.7e-05 | CCC(C)(C)C(=O)OCc1cc(C)cc(C)c1/C=C/[C@@H]1C[C@@H](O)CC(=O)O1 (relative stereo) [Example 4] | –

Row | SMILES | IC50 (HMG-CoA Reductase; [2]) [M] | IC50 (HMG-CoA Reductase; [3]) [M] | inhibition of cholesterol biosynthesis, in words [1]
6 | CC[C@H](C)C(=O)O[C@H]1C[C@@H](C)C=C2C=C[C@H](C)[C@H](CC[C@@H]3C[C@@H](O)CC(=O)O3)[C@H]21 [Mevinolin, reference compound] | 5e-09 | 6e-07 | more effectively
